{
  "source": "patent US8637528B2",
  "about": "“Use of PDE7 inhibitors for the treatment of movement disorders” (Omeros Corporation, priority 2007, dated 2014)",
  "key": {"MPTP-treated mice": {"system": "MPTP-treated mice", "experiment": "inked paw stride length in the MPTP mouse model of Parkinson's disease, confirmatory study (Example 6)", "format": "in vivo", "parameters": "key to Letter Designation (statistical group of stride length): A: Groups that share a letter are not statistically different; groups that do not share a letter are significantly different from each other.; B: Groups that share a letter are not statistically different; groups that do not share a letter are significantly different from each other.; C: Groups that share a letter are not statistically different; groups that do not share a letter are significantly different from each other", "details": "for Letter Designation (statistical group of stride length): No treatment = A, MPTP = B; for Stride length (cm) MEAN ± SEM: MPTP-lesioned mice, 20 minutes after dosing", "description": "Adult male C57BL/6J; retired breeders, aged between 7-9 months (Jackson Laboratory, Bar Harbor, Me., USA), singly housed.\nMPTP Mice received 2 subcutaneous injections of methylphenyltetrahydropyridine (“MPTP”) at a dose of 15 mg/kg (free base) with a 10-12 hour interval between injections. Control mice (sham lesion groups) were administered saline instead of MPTP.\nSeven days after MPTP/saline administration, OM69 was administered to mice. For each dose, a 100× stock of OM69 was prepared in 100% DMSO and subsequently diluted 100× into phosphate buffered saline (PBS). Then 100 μL of this 1× solution was administered intraperitoneally (IP).\nPrior to injection with MPTP or saline, animals were pre-trained to walk across a clean sheet of paper into their home cage without stopping. For assessment of stride length, animals had their forepaws placed in black ink and the length of forepaw steps during normal walking (in a straight line only) was measured. The animals were immediately put back into their home cage upon completion of the task. Stride length was determined by measuring the distance between each step on the same side of the body, measuring from the middle toe of the first step to the heel of the second step. An average of at least four clear steps was calculated.\nData was analyzed using Prism 4.0 software. Groups were analyzed by one way ANOVA and Student-Newman-Keuls post hoc test when appropriate. Significance was considered reached at p<0.05. Treatment groups in the stride length graph that are statistically different are indicated by the letters in Table 6.\nRetired breeder male mice (28 animals total) were treated with 2×15 mg/kg MPTP (12 saline; […]) to induce a Parkinsonian state (neurochemical loss of dopamine with corresponding behavioral deficits). On day 1 baseline stride length was measured and then all mice were treated with MPTP or saline. On day 8 stride length was measured again, and then the MPTP-treated animals were divided randomly into two groups of fourteen. As described in Example 5, dosing with the successive treatments indicated in FIG. 12 occurred on consecutive days, and in each case stride length was measured 20 minutes after dosing.\nOn Day 9, Group 1 animals were treated with OM69 (0.01 mg/kg) and Group 2 were treated with L-dopa (1 mg/kg). On Day 10, Group 1 animals were treated with OM69 (0.03 mg/kg) and Group 2 were treated with L-dopa (5 mg/kg). On Day 11, Group 1 animals were treated with OM69 (0.05 mg/kg) and Group 2 were treated with OM69 (0.1 mg/kg). On Day 12, Group 1 was treated with OM69 (0.07 mg/kg).\nNext, for combination studies, the two groups were combined. On Day 14, all the animals were treated with both L-dopa (1 mg/kg) and OM69 (0.01 mg/kg). On Day 15, all the animals were treated with L-dopa (1 mg/kg) in combination with a higher dose of OM69 (0.03 mg/kg)."}, "PDE10A": {"biological_target": "PDE10A (Mus musculus (Mouse), UniProt Q8CA95)", "sequence (Q8CA95 whole entry)": "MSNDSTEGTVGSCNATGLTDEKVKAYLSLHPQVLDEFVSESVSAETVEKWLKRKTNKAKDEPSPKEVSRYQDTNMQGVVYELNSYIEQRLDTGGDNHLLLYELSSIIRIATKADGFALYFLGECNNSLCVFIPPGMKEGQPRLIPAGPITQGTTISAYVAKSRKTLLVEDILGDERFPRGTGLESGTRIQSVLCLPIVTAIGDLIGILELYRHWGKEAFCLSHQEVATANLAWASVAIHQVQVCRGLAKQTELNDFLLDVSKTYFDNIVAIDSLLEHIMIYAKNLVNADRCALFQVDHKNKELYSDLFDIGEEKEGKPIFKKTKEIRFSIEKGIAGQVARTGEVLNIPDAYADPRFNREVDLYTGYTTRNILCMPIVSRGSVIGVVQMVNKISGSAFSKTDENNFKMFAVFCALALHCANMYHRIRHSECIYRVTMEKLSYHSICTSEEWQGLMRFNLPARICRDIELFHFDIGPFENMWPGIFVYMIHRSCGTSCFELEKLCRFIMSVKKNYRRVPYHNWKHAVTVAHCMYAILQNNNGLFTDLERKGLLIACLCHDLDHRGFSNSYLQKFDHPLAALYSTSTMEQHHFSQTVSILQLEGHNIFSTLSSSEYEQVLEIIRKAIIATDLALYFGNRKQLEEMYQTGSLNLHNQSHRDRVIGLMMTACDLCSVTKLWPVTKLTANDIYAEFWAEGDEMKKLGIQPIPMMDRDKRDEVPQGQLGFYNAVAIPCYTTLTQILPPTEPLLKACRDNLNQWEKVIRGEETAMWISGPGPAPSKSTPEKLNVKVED", "experiment": "PDE selectivity SPA assay, PDE10A", "format": "biochemical", "details": "IC50 against murine PDE10A divided by IC50 against PDE7A", "description": "Phosphodiesterase activity was measured by a scintillation proximity assay (SPA, GE Healthcare: Product Code TRKQ7100) with [^3H]-cAMP as the substrate for PDEs 3A, 4A, 8A, or with [^3H]-cGMP as the substrate for PDEs 1B, 2A, 5A, 9A, 10A and 11A. Purified human PDE1B, PDE2A, PDE3A, PDE4A, PDE5A, PDE8A, PDE9A and PDE11A4 were obtained from BPS Bioscience, San Diego, Calif. Purified murine PDE10A was also obtained from BPS Biosciences. […] Therefore, the results obtained using murine PDE10A are believed to be representative of human PDE10.\nThe purified PDE enzymes were each diluted and stored in a solution containing 25 mM Tris-Cl (pH 8.0), 100 mM NaCl, 0.05% Tween 20, 50% glycerol, and 3 mM DTT. PDE assays were carried out in the following assay cocktail (final concentrations): 50 mM Tris-Cl (pH 8.0), 8.3 mM MgCl2, 1.7 mM EGTA, 0.5 mg/ml BSA, 2.5% DMSO and between 0.2 ng and 6 ng of the PDE protein (depending on the enzyme activity) in a final volume of 0.1 mL.\nReactions were initiated by addition of enzyme, incubated for 20 minutes at 30° C. and then terminated by the addition of 50 μl of SPA beads containing Zn^2+.\nThe mixture was shaken, and allowed to settle for 3 hours. Then the production of [^3H]-AMP or [^3H]-GMP from the substrate was quantitated by scintillation counting in a Wallac® plate counter. […]"}},
  "data": [
    {"smiles": "N[C@@H](Cc1ccc(O)c(O)c1)C(=O)O", "note": "[L-dopa, levodopa, reference compound]", "values": [
      {"measurement": "Letter Designation (statistical group of stride length)", "setting": "MPTP-treated mice; 1 mg/kg L-DOPA", "result": "B"},
      {"measurement": "Letter Designation (statistical group of stride length)", "setting": "MPTP-treated mice; 5 mg/kg L-DOPA", "result": "A"},
      {"measurement": "Stride length (cm) MEAN ± SEM", "setting": "MPTP-treated mice; 1 mg/kg L-DOPA", "result": "5.78 ± 0.09", "unit": "cm"},
      {"measurement": "Stride length (cm) MEAN ± SEM", "setting": "MPTP-treated mice; 5 mg/kg L-DOPA", "result": "7.29 ± 0.07", "unit": "cm"},
      {"measurement": "effect on stride length, in words", "setting": "MPTP-treated mice; MPTP-treated mice, 1 mg/kg L-dopa", "result": "did not result in a significant increase in stride length"},
      {"measurement": "effect on stride length, in words", "setting": "MPTP-treated mice; MPTP-treated mice, 5 mg/kg L-dopa", "result": "returned stride length to control (unlesioned) values"}
    ]},
    {"smiles": "O=C1Nc2c(Cl)ccc(OCCO)c2C2(CCCCC2)N1", "note": "[OM955]", "values": [
      {"measurement": "Fold Selectivity for PDE7A versus PDE10A", "setting": "PDE10A", "result": 379, "unit": "fold"}
    ]},
    {"smiles": "COc1cc(N)ccc1-c1cc2c(c(=O)[nH]1)C(C1CCCCC1)N=[N+]2C", "note": "(centres unmarked) [OM69]", "values": [
      {"measurement": "Letter Designation (statistical group of stride length)", "setting": "MPTP-treated mice; 0.01 mg/kg OM69", "result": "B"},
      {"measurement": "Letter Designation (statistical group of stride length)", "setting": "MPTP-treated mice; 0.03 mg/kg OM69", "result": "B"},
      {"measurement": "Letter Designation (statistical group of stride length)", "setting": "MPTP-treated mice; 0.05 mg/kg OM69", "result": "C"},
      {"measurement": "Letter Designation (statistical group of stride length)", "setting": "MPTP-treated mice; 0.07 mg/kg OM69", "result": "C"},
      {"measurement": "Letter Designation (statistical group of stride length)", "setting": "MPTP-treated mice; 0.1 mg/kg OM69", "result": "A"},
      {"measurement": "Stride length (cm) MEAN ± SEM", "setting": "MPTP-treated mice; 0.01 mg/kg OM69 IP", "result": "5.77 ± 0.17", "unit": "cm"},
      {"measurement": "Stride length (cm) MEAN ± SEM", "setting": "MPTP-treated mice; 0.03 mg/kg OM69 IP", "result": "5.93 ± 0.14", "unit": "cm"},
      {"measurement": "Stride length (cm) MEAN ± SEM", "setting": "MPTP-treated mice; 0.05 mg/kg OM69 IP", "result": "6.38 ± 0.14", "unit": "cm"},
      {"measurement": "Stride length (cm) MEAN ± SEM", "setting": "MPTP-treated mice; 0.07 mg/kg OM69 IP", "result": "6.65 ± 0.18", "unit": "cm"},
      {"measurement": "Stride length (cm) MEAN ± SEM", "setting": "MPTP-treated mice; 0.1 mg/kg OM69 IP", "result": "7.23 ± 0.07", "unit": "cm"},
      {"measurement": "potency relative to L-dopa in restoring stride length", "setting": "MPTP-treated mice; MPTP-treated mice", "result": "approximately 50 fold"},
      {"measurement": "effect on stride length, in words", "setting": "MPTP-treated mice; MPTP-treated mice, 0.1 mg/kg OM69", "result": "returned stride length to control (unlesioned) values"},
      {"measurement": "dose dependence of the effect on stride length, in words", "setting": "MPTP-treated mice; MPTP-treated mice, FIG. 18", "result": "increases stride length in MPTP-treated mice in a dose-dependent manner"},
      {"measurement": "effect on stride length, in words", "setting": "MPTP-treated mice; MPTP-treated mice, intermediate doses of OM69", "result": "statistically significant (p<0.05) increase in stride length"},
      {"measurement": "effect on stride length, in words", "setting": "MPTP-treated mice; MPTP-treated mice, low doses of OM69 (0.01 mg/kg or 0.03 mg/kg)", "result": "did not increase stride length"},
      {"measurement": "Fold Selectivity for PDE7A versus PDE10A", "setting": "PDE10A", "result": 1050, "unit": "fold"}
    ]}
  ]
}
